Series [1] has as its target DNA dC->dU-editing enzyme APOBEC-3G (Homo sapiens, UniProt Q9HC16). Briefly: APOBEC3G deaminase inhibitors, SAR follow-up, biochemical, fluorescence, single-stranded DNA substrate (AID 602136). Format: functional. The settings on record: read-out: IC50_Mean.
Series [2] has as its target DNA dC->dU-editing enzyme APOBEC-3A (Homo sapiens, UniProt P31941). Briefly: SAR analysis of small molecule inhibitors of APOBEC3A DNA Deaminase via a fluorescence-based single-stranded DNA deaminase assay. Format: functional. To be noted: read-out: IC50_Mean.
A further series deals with Cytochrome P450 2C19 (Homo sapiens, UniProt P33261). As to the kind of experiment: Cytochrome panel assay with activity outcomes. Panel member name: p450-cyp2c19 Compounds with AC50 equal or less than 10 uM are considered active. Format: functional. To be noted: read-out: AC50.
Chain of Cytochrome P450 2C19 (P33261 whole entry): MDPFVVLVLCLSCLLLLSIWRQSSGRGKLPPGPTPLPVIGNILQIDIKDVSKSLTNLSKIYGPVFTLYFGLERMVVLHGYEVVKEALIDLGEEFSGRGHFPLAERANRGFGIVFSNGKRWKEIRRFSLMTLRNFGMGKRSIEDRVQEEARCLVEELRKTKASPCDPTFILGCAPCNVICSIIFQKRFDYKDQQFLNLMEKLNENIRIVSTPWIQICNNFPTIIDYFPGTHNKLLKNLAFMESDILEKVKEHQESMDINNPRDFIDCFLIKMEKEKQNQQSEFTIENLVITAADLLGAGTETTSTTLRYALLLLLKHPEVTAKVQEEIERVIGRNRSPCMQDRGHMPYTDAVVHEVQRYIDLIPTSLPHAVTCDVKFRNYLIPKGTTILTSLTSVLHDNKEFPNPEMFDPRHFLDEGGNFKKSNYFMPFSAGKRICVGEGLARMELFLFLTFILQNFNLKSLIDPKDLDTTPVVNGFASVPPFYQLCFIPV
The next series addresses Cytochrome P450 2D6 (Homo sapiens, UniProt P10635).
For the next series, the target named is Cytochrome P450 2C9 (Homo sapiens, UniProt P11712).
Chain of Cytochrome P450 2C9 (P11712 whole entry): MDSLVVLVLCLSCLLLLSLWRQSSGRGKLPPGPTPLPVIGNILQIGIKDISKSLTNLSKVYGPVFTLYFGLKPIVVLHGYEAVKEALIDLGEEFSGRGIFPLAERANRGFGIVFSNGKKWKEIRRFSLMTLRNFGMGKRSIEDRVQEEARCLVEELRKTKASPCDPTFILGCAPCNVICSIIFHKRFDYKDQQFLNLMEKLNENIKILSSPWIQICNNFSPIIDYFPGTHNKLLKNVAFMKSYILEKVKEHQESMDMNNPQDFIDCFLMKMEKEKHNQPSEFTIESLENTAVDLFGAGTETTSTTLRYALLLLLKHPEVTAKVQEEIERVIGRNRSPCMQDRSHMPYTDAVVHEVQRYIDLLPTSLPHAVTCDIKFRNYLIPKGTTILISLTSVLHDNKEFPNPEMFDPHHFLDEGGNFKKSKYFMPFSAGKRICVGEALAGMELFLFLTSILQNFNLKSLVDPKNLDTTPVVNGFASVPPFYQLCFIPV
Series [3] addresses T1, Caspase-3 (Homo sapiens, UniProt P42574).
T1 sequence (P42574 whole entry): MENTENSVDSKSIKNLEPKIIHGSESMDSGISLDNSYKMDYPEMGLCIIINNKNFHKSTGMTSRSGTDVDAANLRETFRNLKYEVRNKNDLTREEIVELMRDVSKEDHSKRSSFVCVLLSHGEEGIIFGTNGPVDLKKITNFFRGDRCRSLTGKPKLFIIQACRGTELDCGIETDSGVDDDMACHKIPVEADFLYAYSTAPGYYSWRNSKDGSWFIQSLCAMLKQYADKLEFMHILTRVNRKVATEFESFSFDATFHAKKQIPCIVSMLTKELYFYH
Briefly: caspase-3 inhibitors as off-family protease, SAR follow-up, selectivity assay for SENP protease inhibitor project, biochemical, luminescence, set 2 (AID 588599). The series is classed as functional.

In series [4] the target is T2, Sentrin-specific protease 8 (Homo sapiens, UniProt Q96LD8).
T2 sequence (Q96LD8 whole entry): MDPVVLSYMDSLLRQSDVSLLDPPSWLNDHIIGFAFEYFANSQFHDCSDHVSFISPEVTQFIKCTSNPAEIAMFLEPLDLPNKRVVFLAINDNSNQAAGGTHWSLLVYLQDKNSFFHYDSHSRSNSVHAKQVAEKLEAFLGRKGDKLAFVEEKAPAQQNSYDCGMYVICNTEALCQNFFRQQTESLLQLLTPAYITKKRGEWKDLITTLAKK
As to the kind of experiment: SENP8 protease inhibitors, SAR follow-up, biochemical, luminescence, set 2 (AID 588601). The series is classed as functional.

The target in series [5] is T3, Sentrin-specific protease 7 (Homo sapiens, UniProt Q9BQF6).
T3 sequence (Q9BQF6 whole entry): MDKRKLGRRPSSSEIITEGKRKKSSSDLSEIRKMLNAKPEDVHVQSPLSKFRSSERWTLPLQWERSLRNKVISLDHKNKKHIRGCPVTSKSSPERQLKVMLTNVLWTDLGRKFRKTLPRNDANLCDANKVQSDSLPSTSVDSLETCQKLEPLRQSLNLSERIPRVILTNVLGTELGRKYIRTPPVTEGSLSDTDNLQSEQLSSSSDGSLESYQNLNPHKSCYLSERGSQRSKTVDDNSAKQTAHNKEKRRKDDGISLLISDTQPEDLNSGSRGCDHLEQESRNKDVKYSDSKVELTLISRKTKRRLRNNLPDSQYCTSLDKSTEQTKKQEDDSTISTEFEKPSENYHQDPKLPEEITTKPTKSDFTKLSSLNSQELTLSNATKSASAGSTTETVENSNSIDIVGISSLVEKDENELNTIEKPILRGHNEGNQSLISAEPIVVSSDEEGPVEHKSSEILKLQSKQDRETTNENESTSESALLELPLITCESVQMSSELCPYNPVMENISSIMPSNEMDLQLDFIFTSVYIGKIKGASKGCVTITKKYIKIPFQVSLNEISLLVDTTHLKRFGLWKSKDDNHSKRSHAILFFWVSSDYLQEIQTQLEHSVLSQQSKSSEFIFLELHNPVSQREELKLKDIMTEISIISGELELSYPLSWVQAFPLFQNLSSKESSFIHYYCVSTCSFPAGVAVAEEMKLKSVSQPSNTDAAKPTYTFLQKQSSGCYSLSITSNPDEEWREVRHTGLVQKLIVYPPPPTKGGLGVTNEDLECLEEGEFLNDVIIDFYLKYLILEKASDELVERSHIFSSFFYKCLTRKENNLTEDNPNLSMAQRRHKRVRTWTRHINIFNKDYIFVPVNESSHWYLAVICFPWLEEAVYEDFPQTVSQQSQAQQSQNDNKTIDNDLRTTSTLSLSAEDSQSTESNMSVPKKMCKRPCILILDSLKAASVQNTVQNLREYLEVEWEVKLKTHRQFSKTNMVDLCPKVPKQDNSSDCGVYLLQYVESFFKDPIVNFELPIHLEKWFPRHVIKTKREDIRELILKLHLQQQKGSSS
Briefly: SENP7 protease inhibitors, SAR follow-up, biochemical, luminescence, set 2 (AID 588600). The series is classed as functional.

Series [6] deals with T4, Sentrin-specific protease 6 (Homo sapiens, UniProt Q9GZR1).
T4 sequence (Q9GZR1 whole entry): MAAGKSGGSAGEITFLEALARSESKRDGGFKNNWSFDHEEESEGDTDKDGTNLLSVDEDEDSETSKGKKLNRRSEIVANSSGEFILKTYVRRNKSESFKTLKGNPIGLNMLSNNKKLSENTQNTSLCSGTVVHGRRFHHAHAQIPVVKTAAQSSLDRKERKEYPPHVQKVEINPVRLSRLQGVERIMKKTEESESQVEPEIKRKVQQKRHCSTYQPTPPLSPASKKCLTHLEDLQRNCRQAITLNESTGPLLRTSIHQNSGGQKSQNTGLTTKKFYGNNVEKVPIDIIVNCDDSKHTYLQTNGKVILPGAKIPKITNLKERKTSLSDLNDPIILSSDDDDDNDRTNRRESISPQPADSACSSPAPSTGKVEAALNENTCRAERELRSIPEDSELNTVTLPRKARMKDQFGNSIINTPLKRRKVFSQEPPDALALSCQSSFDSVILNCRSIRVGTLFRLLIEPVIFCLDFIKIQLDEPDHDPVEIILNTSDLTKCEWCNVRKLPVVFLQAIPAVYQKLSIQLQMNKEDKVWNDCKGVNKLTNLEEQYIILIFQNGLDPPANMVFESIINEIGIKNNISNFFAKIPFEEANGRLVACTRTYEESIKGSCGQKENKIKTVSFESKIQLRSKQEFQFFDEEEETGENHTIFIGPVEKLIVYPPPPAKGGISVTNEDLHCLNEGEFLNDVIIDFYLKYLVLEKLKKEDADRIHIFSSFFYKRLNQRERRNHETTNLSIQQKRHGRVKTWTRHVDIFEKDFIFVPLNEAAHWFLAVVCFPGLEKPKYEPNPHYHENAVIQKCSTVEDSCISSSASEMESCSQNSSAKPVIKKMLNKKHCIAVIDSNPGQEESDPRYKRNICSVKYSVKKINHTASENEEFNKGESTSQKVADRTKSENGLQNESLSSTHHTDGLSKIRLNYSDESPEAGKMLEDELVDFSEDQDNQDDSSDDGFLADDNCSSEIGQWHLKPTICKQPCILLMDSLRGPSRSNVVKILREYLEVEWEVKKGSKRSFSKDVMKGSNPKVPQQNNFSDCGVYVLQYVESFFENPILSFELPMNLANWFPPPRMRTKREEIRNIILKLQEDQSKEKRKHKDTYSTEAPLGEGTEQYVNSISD
Briefly: SENP6 protease inhibitors, SAR follow-up, biochemical, luminescence, set 2 (AID 588598). Format: functional.

Series [7] addresses T5, Insulin-degrading enzyme (Homo sapiens, UniProt P14735).
T5 sequence (P14735 whole entry): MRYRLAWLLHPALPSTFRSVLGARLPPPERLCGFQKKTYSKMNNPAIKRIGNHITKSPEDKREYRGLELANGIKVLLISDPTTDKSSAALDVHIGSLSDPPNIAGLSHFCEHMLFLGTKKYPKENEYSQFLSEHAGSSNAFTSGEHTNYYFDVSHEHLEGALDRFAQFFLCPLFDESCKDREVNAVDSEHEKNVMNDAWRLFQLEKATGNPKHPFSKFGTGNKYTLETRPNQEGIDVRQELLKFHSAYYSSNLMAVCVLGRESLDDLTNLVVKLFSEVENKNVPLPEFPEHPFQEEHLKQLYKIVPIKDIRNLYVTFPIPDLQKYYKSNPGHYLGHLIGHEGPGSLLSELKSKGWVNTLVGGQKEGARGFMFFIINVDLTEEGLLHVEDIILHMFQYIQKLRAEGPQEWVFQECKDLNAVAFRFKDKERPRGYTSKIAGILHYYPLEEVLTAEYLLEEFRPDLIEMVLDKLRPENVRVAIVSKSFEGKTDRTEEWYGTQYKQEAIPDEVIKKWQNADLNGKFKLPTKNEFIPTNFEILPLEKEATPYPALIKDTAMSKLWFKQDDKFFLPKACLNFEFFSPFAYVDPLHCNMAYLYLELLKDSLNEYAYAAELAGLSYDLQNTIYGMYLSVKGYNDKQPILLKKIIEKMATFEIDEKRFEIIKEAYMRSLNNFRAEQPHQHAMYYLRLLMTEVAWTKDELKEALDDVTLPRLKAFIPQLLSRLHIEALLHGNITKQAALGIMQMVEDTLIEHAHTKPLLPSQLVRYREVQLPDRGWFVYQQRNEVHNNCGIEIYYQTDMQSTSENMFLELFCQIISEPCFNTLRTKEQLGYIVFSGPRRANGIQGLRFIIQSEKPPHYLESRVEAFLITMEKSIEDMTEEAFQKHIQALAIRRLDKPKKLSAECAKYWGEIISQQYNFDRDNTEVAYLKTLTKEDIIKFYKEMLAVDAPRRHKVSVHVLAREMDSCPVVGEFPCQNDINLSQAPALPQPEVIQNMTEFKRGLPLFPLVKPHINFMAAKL
As to the kind of experiment: activators of recombinant IDE enzyme, dose response, counter-screen for IDE activator project, biochemical, fluorescence polarization (AID 588681). Background: The purpose of a counterscreen is to sort out artefacts and off-target activity.

The target of series [8] is T5, Insulin-degrading enzyme. As to the kind of experiment: activators of endogenous IDE in HEK cells, dose response, cell-based, fluorescence polarization (AID 588439). Format: functional.
In series [9] the test system is HEK293. As to the kind of experiment: HEK cell cytotoxicity by LDH release, dose response, cytotoxicity control for IDE activator project, fluorescence, HEK cells (AID 588440).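 Note: cytotoxicity by LDH release measuring loss of membrane integrity.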 The series is classed as functional, cell-based. The settings on record: Homo sapiens. (LDH leaks from cells whose membrane has failed.)
The subject of series [10] is HEK293. As to the kind of experiment: optical interference in Abeta FP readout, dose response, artefact control for IDE activator project, biochemical, fluorescence polarization (AID 588442). The series is classed as functional, cell-based. To be noted: Homo sapiens.
The target of series [11] is T2, Sentrin-specific protease 8. As to the kind of experiment: SENP8 protease inhibitors, SAR follow-up, biochemical, luminescence (AID 504501). The series is classed as functional.
Series [12] has as its target T1, Caspase-3. As to the kind of experiment: SAR Analysis of small molecule inhibitors of Sentrin-specific proteases (SENPs) using a Caspase-3 Selectivity assay. [Related pubchem assays (depositor defined):AID2540, AID2599, AID434973, AID489001]. Format: functional.
Series [13] deals with T4, Sentrin-specific protease 6. Briefly: SAR Analysis of small molecule inhibitors of Sentrin-specific protease 6 (SENP6) using a Luminescent assay. [Related pubchem assays (depositor defined):AID2582, AID2599]. Format: functional.
The target in series [14] is T3, Sentrin-specific protease 7. As to the kind of experiment: SENP7 protease inhibitors, SAR follow-up, biochemical, luminescence (AID 504497). Format: functional.

Molecules are shown by their SMILES. The source made the active and inactive calls.

In general, AC50 refers to the concentration giving half of the maximal activity seen. By EC50 is commonly meant the midpoint of the concentration-response curve.

Chain of DNA dC->dU-editing enzyme APOBEC-3A (P31941 whole entry): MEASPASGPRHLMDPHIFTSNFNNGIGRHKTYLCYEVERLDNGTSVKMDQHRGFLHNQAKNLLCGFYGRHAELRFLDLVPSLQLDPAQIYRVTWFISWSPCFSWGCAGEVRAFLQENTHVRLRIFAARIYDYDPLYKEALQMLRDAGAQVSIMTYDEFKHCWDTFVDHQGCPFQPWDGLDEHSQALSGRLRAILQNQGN
Chain of DNA dC->dU-editing enzyme APOBEC-3G (Q9HC16 whole entry): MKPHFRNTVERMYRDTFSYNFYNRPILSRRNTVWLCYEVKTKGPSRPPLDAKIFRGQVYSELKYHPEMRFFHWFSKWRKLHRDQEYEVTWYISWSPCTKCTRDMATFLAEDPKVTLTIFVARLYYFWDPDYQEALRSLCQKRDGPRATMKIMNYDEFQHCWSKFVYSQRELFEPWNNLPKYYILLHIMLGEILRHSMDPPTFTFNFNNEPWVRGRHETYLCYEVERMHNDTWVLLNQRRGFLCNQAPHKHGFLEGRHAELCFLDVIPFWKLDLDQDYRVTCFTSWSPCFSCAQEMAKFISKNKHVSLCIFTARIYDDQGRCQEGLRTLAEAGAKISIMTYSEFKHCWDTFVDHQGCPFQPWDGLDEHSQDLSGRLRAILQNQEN
Chain of Cytochrome P450 2D6 (P10635 whole entry): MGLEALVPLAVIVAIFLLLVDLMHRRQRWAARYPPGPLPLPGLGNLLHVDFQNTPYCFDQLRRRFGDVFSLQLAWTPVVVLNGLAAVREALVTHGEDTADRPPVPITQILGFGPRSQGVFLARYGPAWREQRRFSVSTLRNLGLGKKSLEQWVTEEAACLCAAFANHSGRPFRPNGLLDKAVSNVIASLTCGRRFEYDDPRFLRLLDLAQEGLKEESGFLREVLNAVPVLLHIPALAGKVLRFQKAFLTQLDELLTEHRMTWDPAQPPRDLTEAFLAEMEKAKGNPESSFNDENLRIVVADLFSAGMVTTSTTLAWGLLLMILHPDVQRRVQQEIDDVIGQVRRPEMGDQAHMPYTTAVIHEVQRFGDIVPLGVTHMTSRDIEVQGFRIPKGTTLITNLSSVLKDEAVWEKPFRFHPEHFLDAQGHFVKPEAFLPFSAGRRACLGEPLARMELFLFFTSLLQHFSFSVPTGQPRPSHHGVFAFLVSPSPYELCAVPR

Regarding `Cc1cc(C(=O)Cn2ccccc2=O)c(C)n1Cc1ccccc1`, the IC50 in series [1] and in series [2] was > 99 µM (inactive) throughout.
For the compound `C=CCSc1nnc(-c2cc3c(C(F)(F)F)nn(C)c3s2)n1C`, the results for the half-maximal activity concentration (AC50) at Cytochrome P450 2C19, at Cytochrome P450 2D6 and on Cytochrome P450 2C9 were 3.55 µM (inconclusive), 17.8 µM (inconclusive) and “inconclusive”, respectively. In addition, the IC50 was 70.8 µM (inactive) in series [1] and > 99 µM (inactive) in [2].
Consider `CCN1CCN(CCCNC(=O)C(=O)c2c[nH]c3ccccc23)CC1`, for which the IC50 (at Caspase-3 [3]; in [4]; in series [5]; in series [6]) was > 99 µM (inactive) throughout.
Regarding `C1CCCCCC(=NNc2nn[nH]n2)CCCCC1`, the EC50 on Insulin-degrading enzyme [7] is > 54.7 µM (inactive); on Insulin-degrading enzyme [8] it was > 54.7 µM (inactive); with HEK293 [10], > 56 µM (inactive). Moreover, the IC50 in the series with HEK293 [9] was > 89.2 µM (inactive).
For `Cn1cccc1C(=O)Nc1nc2ccc(Cl)cc2s1`, the IC50 in [11] is 0.52 µM (active); on Caspase-3 [3], 0.465 µM (active); in series [4] it was 0.619 µM (active); at Caspase-3 [12], 0.42 µM (active); in series [5], 0.558 µM (active); in series [13] it was 0.54 µM (active). In addition, the IC50 in [6] is 0.652 µM (active); in series [14], 0.49 µM (active).
In the case of `O=C(Nc1ccc(-c2nc3ccccc3o2)cc1)c1ccc2c(c1)OCO2`, the EC50 on Insulin-degrading enzyme [7] is > 54.7 µM (inactive); on Insulin-degrading enzyme [8] it was > 54.7 µM (inactive); in the series on HEK293 [10] it was > 55.9 µM (inactive). The IC50 in the series with HEK293 [9] was > 9.91 µM (active).

(Values after ChEMBL document CHEMBL1201862, “PubChem BioAssay data set” (2004).)
